{
  "source": "patent US20150105252A1",
  "about": "“SUBSTITUTED PYRAZOLES AS HERBICIDES” (E I DU PONT DE NEMOURS AND COMPANY, priority 2013, published 2015)",
  "key": {"[1]": {"system": "waterhemp", "experiment": "Test C postemergence", "type": "in vivo, Amaranthus rudis", "procedure,_shortened": "(§1)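 In this greenhouse assay, seeded soil (loam plus sand) or emerged seedlings in peat-vermiculite medium were treated with formulated compound. Roughly two weeks later (13–15 days), each species was scored visually relative to controls, from 0 for no effect to 100 for complete control.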"}, "[2]": {"system": "ragweed", "experiment": "Test C preemergence", "type": "in vivo, Ambrosia elation", "settings": "preemergence", "procedure,_shortened": "as §1"}, "[3]": {"system": "pigweed", "experiment": "Test C preemergence", "type": "in vivo, Amaranthus retroflexus", "settings": "preemergence", "procedure,_shortened": "as §1"}, "[4]": {"system": "ragweed", "experiment": "Test C postemergence", "type": "in vivo, Ambrosia elation", "settings": "for Plant response rating, Ragweed: postemergence", "procedure,_shortened": "as §1"}, "[5]": {"system": "lambsquarters", "experiment": "Test C postemergence", "type": "in vivo, Chenopodium album", "procedure,_shortened": "as §1"}, "[6]": {"system": "soybean", "experiment": "Test C postemergence", "type": "in vivo, Glycine max", "procedure,_shortened": "as §1"}, "[7]": {"system": "corn", "experiment": "Test C postemergence", "type": "in vivo, Zea mays", "procedure,_shortened": "as §1"}, "[8]": {"system": "velvetleaf", "experiment": "Test A postemergence", "type": "in vivo, Abutilon theophrasti", "procedure,_shortened": "(§2)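 Both timings tested concurrently in loam/sand soil: preemergence by directed soil spray, postemergence on plants of 2–10 cm at the one- to two-leaf stage. Greenhouse holding period was approximately 10 days before visual injury assessment (0–100, 0 = no effect).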"}, "[9]": {"system": "foxtail, giant", "experiment": "Test A postemergence", "type": "in vivo, Setaria faberii", "procedure,_shortened": "as §2"}, "[10]": {"system": "wheat", "experiment": "Test A preemergence", "type": "in vivo, Triticum aestivum", "settings": "preemergence", "procedure,_shortened": "as §2"}, "[11]": {"system": "corn", "experiment": "Test A postemergence", "type": "in vivo, Zea mays", "procedure,_shortened": "as §2"}, "[12]": {"system": "velvetleaf", "experiment": "Test C postemergence", "type": "in vivo, Abutilon theophrasti", "procedure,_shortened": "as §1"}, "[13]": {"system": "wheat", "experiment": "Test C postemergence", "type": "in vivo, Triticum aestivum", "procedure,_shortened": "as §1"}, "[14]": {"system": "morningglory", "experiment": "Test A postemergence", "type": "in vivo, Ipomoea spp.", "procedure,_shortened": "as §2"}, "[15]": {"system": "soybean", "experiment": "Test C preemergence", "type": "in vivo, Glycine max", "settings": "preemergence", "procedure,_shortened": "as §1"}, "[16]": {"system": "crabgrass, large", "experiment": "Test A postemergence", "type": "in vivo, Digitaria sanguinalis", "procedure,_shortened": "as §2"}, "[17]": {"system": "oilseed rape", "experiment": "Test C preemergence", "type": "in vivo, Brassica napus", "settings": "preemergence", "procedure,_shortened": "as §1"}, "[18]": {"settings": "Postemergence, 31 g ai/ha, visually evaluated after 13 to 15 days"}, "[19]": {"settings": "postemergence, 250 g ai/ha, scale 0 to 100 (0 no effect, 100 complete control)"}, "[20]": {"settings": "31 g ai/ha, visual rating, scale 0 to 100 (0 no effect, 100 complete control), 13 to 15 days"}, "[21]": {"settings": "62 g ai/ha, scale 0 to 100 (0 no effect, 100 complete control), 13 to 15 days"}, "[22]": {"settings": "125 g ai/ha, 13 to 15 days, scale 0 to 100, 0 = no effect, 100 = complete control"}, "[23]": {"settings": "250 g ai/ha, scale 0 to 100, 0 is no effect, 100 is complete control"}, "[24]": {"settings": "postemergence, 62 g ai/ha, scale 0 to 100"}, "[25]": {"settings": "postemergence, 125 g ai/ha, scale 0 to 100, 0 no effect, 100 complete control"}, "[26]": {"settings": "Postemergence, 500 g ai/ha, 0 to 100 scale (0 no effect, 100 complete control)"}, "[27]": {"settings": "postemergence, 125 g ai/ha, about 10 days, visual rating on 0 to 100 scale (0 no effect, 100 complete control)"}},
  "data": [
    {"smiles": "O=C(NC1CC1)c1cc(CCCl)n(Cc2ccnc(C(F)(F)F)c2)n1", "note": "[Compound 144]", "values": [
      {"measurement": "Plant response rating (scale of 0 to 100 where 0 is no effect and 100 is complete control), Waterhemp", "setting": "[1]; [18]", "value": 65},
      {"measurement": "Plant response rating, Waterhemp", "setting": "[1]; [19]", "value": 75},
      {"measurement": "Waterhemp plant response rating", "setting": "[1]; postemergence, scale 0 to 100", "value": 75},
      {"measurement": "Ragweed plant response rating", "setting": "[2]; [20]", "value": 85},
      {"measurement": "Ragweed plant response rating", "setting": "[2]; [21]", "value": 90},
      {"measurement": "Plant response rating, Ragweed", "setting": "[2]; [22]", "value": 95},
      {"measurement": "Ragweed plant response rating", "setting": "[2]; [23]", "value": 98},
      {"measurement": "Pigweed plant response rating", "setting": "[3]; [20]", "value": 98},
      {"measurement": "Pigweed plant response rating", "setting": "[3]; [21]", "value": 100},
      {"measurement": "Plant response rating, Pigweed", "setting": "[3]; [22]", "value": 100},
      {"measurement": "Pigweed plant response rating", "setting": "[3]; [23]", "value": 100},
      {"measurement": "Plant response rating (scale of 0 to 100 where 0 is no effect and 100 is complete control), Ragweed", "setting": "[4]; [18]", "value": 10},
      {"measurement": "Plant response rating, Ragweed", "setting": "[4]; 250 g ai/ha, scale 0 to 100 (0 no effect, 100 complete control)", "value": 75},
      {"measurement": "Plant response rating, Ragweed", "setting": "[4]; 125 g ai/ha, scale 0 to 100, 0 no effect, 100 complete control", "value": 35},
      {"measurement": "Plant response rating (scale of 0 to 100 where 0 is no effect and 100 is complete control), Lambsquarters", "setting": "[5]; [18]", "value": 60},
      {"measurement": "Lambsquarters plant response rating", "setting": "[5]; [24]", "value": 60},
      {"measurement": "Plant response rating, Lambsquarters", "setting": "[5]; [19]", "value": 95},
      {"measurement": "Plant response rating, Lambsquarters", "setting": "[5]; [25]", "value": 70},
      {"measurement": "Plant response rating (scale of 0 to 100 where 0 is no effect and 100 is complete control), Soybean", "setting": "[6]; [18]", "value": 35},
      {"measurement": "Plant response rating, Soybean", "setting": "[6]; [19]", "value": 95},
      {"measurement": "Soybean plant response rating", "setting": "[6]; [25]", "value": 75},
      {"measurement": "Plant response rating (scale of 0 to 100 where 0 is no effect and 100 is complete control), Corn", "setting": "[7]; [18]", "value": 5},
      {"measurement": "Corn plant response rating", "setting": "[7]; [24]", "value": 10},
      {"measurement": "Plant response rating, Corn", "setting": "[7]; [19]", "value": 25},
      {"measurement": "Plant response rating, Corn", "setting": "[7]; [25]", "value": 15},
      {"measurement": "Velvetleaf plant response rating", "setting": "[8]; [26]", "value": 90},
      {"measurement": "Velvetleaf plant response rating", "setting": "[8]; [27]", "value": 80},
      {"measurement": "Foxtail, Giant plant response rating", "setting": "[9]; [26]", "value": 90},
      {"measurement": "Foxtail, Giant plant response rating", "setting": "[9]; [27]", "value": 90},
      {"measurement": "Wheat plant response rating (0 to 100 scale)", "setting": "[10]; 125 g ai/ha, visual injury approx. 10 days after treatment", "value": 50},
      {"measurement": "Wheat plant response rating", "setting": "[10]; 500 g ai/ha, visual injury after approx. 10 days, 0 to 100 scale (0 no effect, 100 complete control)", "value": 100},
      {"measurement": "Corn plant response rating", "setting": "[11]; [26]", "value": 90},
      {"measurement": "Corn plant response rating", "setting": "[11]; [27]", "value": 50},
      {"measurement": "Plant response rating (scale of 0 to 100 where 0 is no effect and 100 is complete control), Velvetleaf", "setting": "[12]; [18]", "value": 15},
      {"measurement": "Plant response rating, Velvetleaf", "setting": "[12]; [19]", "value": 50},
      {"measurement": "Velvetleaf plant response rating", "setting": "[12]; postemergence, scale 0 to 100", "value": 35},
      {"measurement": "Plant response rating (scale of 0 to 100 where 0 is no effect and 100 is complete control), Wheat", "setting": "[13]; [18]", "value": 5},
      {"measurement": "Plant response rating, Wheat", "setting": "[13]; [19]", "value": 10},
      {"measurement": "Wheat plant response rating", "setting": "[13]; postemergence, scale 0 to 100", "value": 10},
      {"measurement": "Morningglory plant response rating", "setting": "[14]; [26]", "value": 90},
      {"measurement": "Morningglory plant response rating", "setting": "[14]; [27]", "value": 80},
      {"measurement": "Soybean plant response rating", "setting": "[15]; [20]", "value": 5},
      {"measurement": "Soybean plant response rating", "setting": "[15]; [21]", "value": 50},
      {"measurement": "Plant response rating, Soybean", "setting": "[15]; [22]", "value": 80},
      {"measurement": "Soybean plant response rating", "setting": "[15]; [23]", "value": 98},
      {"measurement": "Crabgrass, Large plant response rating", "setting": "[16]; [26]", "value": 90},
      {"measurement": "Crabgrass, Large plant response rating", "setting": "[16]; [27]", "value": 90},
      {"measurement": "Oilseed Rape plant response rating", "setting": "[17]; [20]", "value": 80},
      {"measurement": "Oilseed Rape plant response rating", "setting": "[17]; [21]", "value": 95},
      {"measurement": "Plant response rating, Oilseed Rape", "setting": "[17]; [22]", "value": 100},
      {"measurement": "Oilseed Rape plant response rating", "setting": "[17]; [23]", "value": 100}
    ]}
  ]
}
